Measurements taken from patent US20200115357A1, “LIVER X RECEPTORS (LXR) MODULATORS” (Phenex-FXR GmbH, priority 2017, published 2020).
Where two headings read alike, the source gives them in different places.

Assays:
LXR = conditions: acid formed by ester cleavage of SR9238; cited from earlier work
[1] = Pharmacokinetics in mice, blood and liver exposure via LC-MS; format: in vivo; conditions: for oral bioavailability (in words): mice, oral administration; for blood exposure, 4 h / liver exposure, 4 h: po, Dose (mg) 20, C57BL/6J mice, 4 h after administration
Experimental: The pharmacokinetics of different sulfonamides was assessed in mice after single dosing and oral and intraperitoneal administrations. Blood and liver exposure was measured via LC-MS.
The study design was as follows:
Animals: C57BL/6J (Janvier) males
Diet: standard rodent chow
Vehicle for i.p. injection: 0.5% HPMC (w:v) in water, injection volume: <5 mL/kg
Animal handling: animals were withdrawn from food at least 12 h before administration
Design: single dose oral and bid ip administration, n=3 animals per group
Sacrifice: at t=4 h after administration
Bioanalytics: LC-MS of liver and blood samples

[2] = rat liver microsomes; cited from earlier work
[3] = human liver microsomes; cited from earlier work
[4] = biological target: T1, GST-LXRβ ligand-binding domain (Homo sapiens, UniProt P55055, DUP175-175); assay: TR-FRETβ activity assay (LXRβ-LBD / NCoA3 coactivator peptide, prestimulated with 24(S)-25-epoxycholesterol); format: biochemical; design: key to behavior in FRET assay: ag=agonist; ia=inverse agonist; conditions: for EC50: 1 μM 24(S)-25-epoxycholesterol as prestimulating agonist, read-out: FRETβ activity range (EC50); for behavior in FRET assay: agonist or inverse agonist
T1 construct: amino acids 156-461; NP009052; made in house; host or cells: E. coli
T1 sequence (P55055 with tags, fused parts or gaps DUP175-175): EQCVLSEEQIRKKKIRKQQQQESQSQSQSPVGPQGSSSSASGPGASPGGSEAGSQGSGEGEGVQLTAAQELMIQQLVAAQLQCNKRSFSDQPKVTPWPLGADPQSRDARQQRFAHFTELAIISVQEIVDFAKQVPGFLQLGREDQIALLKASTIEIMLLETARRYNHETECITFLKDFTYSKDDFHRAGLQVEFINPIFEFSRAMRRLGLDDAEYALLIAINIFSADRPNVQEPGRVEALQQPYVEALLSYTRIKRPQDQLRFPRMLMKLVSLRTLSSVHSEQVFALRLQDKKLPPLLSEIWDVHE
How it was run: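 E. coli-expressed GST-LXRβ LBD (aa 156-461) at 76 nM with biotinylated NCoA3 coactivator peptide (400 nM), in 240 mM KCl, BSA and Triton-X-100. Anti-GST-Tb cryptate/streptavidin-XL665 TR-FRET after 1 h equilibration at 4 °C, excitation 340 nm, emission 615 and 665 nm. Run in triplicate.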

[5] = biological target: T2, LXRα ligand-binding domain (LBD) (Homo sapiens, UniProt Q13133); assay: LXR Gal4 reporter transient transfection assay (M2H), Gal4α LBD; format: cell-based; conditions: HEK293 cells; read-out: M2H Gal4α LBD activity range (EC50)
T2 construct: expressed in transfected cells; host or cells: HEK293
T2 sequence (Q13133 155-447): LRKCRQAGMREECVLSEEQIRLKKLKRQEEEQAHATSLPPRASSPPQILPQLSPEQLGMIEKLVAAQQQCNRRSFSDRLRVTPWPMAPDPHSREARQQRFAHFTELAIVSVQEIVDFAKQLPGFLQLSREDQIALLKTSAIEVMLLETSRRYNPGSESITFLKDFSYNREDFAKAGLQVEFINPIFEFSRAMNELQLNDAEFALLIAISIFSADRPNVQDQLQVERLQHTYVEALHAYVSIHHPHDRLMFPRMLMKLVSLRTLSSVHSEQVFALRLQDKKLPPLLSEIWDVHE
Experimental: (§1) The tested compounds were usually dissolved, tested and stored as 20 mM stock solutions in DMSO. Since sulfonyl acetic acid derivatives tend to decarboxylate under these conditions, these stock solutions were prepared, tested and stored as 20 mM DMSO stock solutions containing 100 mM trifluoroacetic acid (5 equivalents). Sulfonyl acetic acid derivatives are shelf stable as solid at rt for long time as reported by Griesbrecht et al. (Synlett 2010:374) or Faucher et al. (J. Med. Chem. 2004; 47:18).
(§2) LXR Gal4 Reporter Transient Transfection Assays
(§3) LXRα and LXRβ activity status was determined via detection of interaction with coactivator and corepressor proteins in mammalian two-hybrid experiments (M2H). For this, via transient transfection the full length (FL) proteins of LXRα (amino acids 1-447; NP005684; SEQ ID NO:7) or LXRβ-(amino acids 1-461; NP009052; SEQ ID NO:8) or the ligand-binding domains (LBD) of LXRα (amino acids 155-447 SEQ ID NO:3) or LXRβ (amino acids 156-461; SEQ ID NO:4) were expressed from pCMV-AD (Stratagene) as fusions to the transcriptional activation domain of NFkB. As cofactors, domains of either the steroid receptor coactivator 1 (SRC1; amino acids 552-887; SEQ ID NO:5) or of the corepressor NCoR (amino acids 1903-2312 SEQ ID NO:6) were expressed as fusions to the DNA binding domain of the yeast transcription factor GAL4 (from pCMV-BD; Stratagene). Interaction was monitored via activation of a coexpressed Firefly Luciferase Reporter gene under control of a promoter containing repetitive GAL4 response elements (vector pFRLuc; Stratagene). Transfection efficiency was controlled via cotransfection of constitutively active pRL-CMV Renilla reniformis luciferase reporter (Promega). HEK293 cells were grown in minimum essential medium (MEM) with 2 mM L-glutamine and Earle's balanced salt solution supplemented with 8.3% fetal bovine serum, 0.1 mM non-essential amino acids, 1 mM sodium pyruvate, at 37° C. in 5% CO2. 3.5×10^4 cells/well were plated in 96-well cell culture plates in growth medium supplemented with 8.3% fetal bovine serum for 16-20 h to ˜90% confluency. For transfection, medium was taken off and LXR and cofactor expressing plasmids as well as the reporter plasmids are added in 30 μL OPTIMEM/well including polyethylene-imine (PEI) as vehicle. Typical amounts of plasmids transfected/well: pCMV-AD-LXR (5 ng), pCMV-BD-cofactor (5 ng), pFR-Luc (100 ng), pRL-CMV (0.5 ng). Compound stocks were prepared in DMSO, prediluted in MEM to a total volume of 120 μL, and added 4 h after addition of the transfection mixture (final vehicle concentration not exceeding 0.2%). Cells were incubated for additional 16 h, lysed for 10 min in 1× Passive Lysis Buffer (Promega) and Firefly and Renilla luciferase activities were measured sequentially in the same cell extract using buffers containing D-luciferine and coelenterazine, respectively. Measurements of luminescence were done in a BMG-Iuminometer.

[6] = biological target: T3, LXRβ ligand-binding domain (LBD) (Homo sapiens, UniProt P55055, DUP175-175); assay: LXR Gal4 reporter transient transfection assay (M2H), Gal4β LBD; format: cell-based; conditions: HEK293 cells; read-out: M2H Gal4β LBD activity range (EC50)
T3 construct: LXRβ (amino acids 156-461); expressed in transfected cells; host or cells: HEK293
T3 sequence (P55055 with tags, fused parts or gaps DUP175-175): T1 sequence (P55055 with tags, fused parts or gaps DUP175-175)
Experimental: as §1, §2, §3

For `Cc1cc(C)c(S(=O)(=O)N(Cc2ccc(-c3cccc(S(C)(=O)=O)c3)cc2)Cc2ccc(C(=O)O)o2)c(C)c1` [SR10389], the “activity on LXR (in words)” value (LXR) is given as “inactive”.
In the case of `Cc1cc(C)c(S(=O)(=O)N(Cc2ccc(-c3cccc(S(C)(=O)=O)c3)cc2)Cc2ccc(C(F)(F)F)o2)c(C)c1` [GSK2033, reference compound], the “oral bioavailability (in words)” value [1] is reported as “not orally bioavailable”, the “blood exposure, 4 h” value [1] is reported as “(14.4 ng/mL)” and the “liver exposure, 4 h” value [1] is reported as “(9.6 ng/mL)”. The “clearance (Clint)” value [2] was over 1.0 mL/min/mg prot and the “clearance (Clint)” value [3] was over 1.0 mL/min/mg prot.
In the case of `Cc1cc(C)c(S(=O)(=O)N(Cc2ccc(-c3cccc(CCC(=O)O)c3)cc2)Cc2ccc(C(F)(F)F)o2)c(C)c1` [Example 25, 3-(4′-(((2,4,6-Trimethyl-N-((5-(trifluoromethyl)furan-2-yl)methyl)phenyl)sulfonamido)methyl)-[1,1′-biphenyl]-3-yl)propanoic acid], the EC50 [4] is reported as 100 to 1000 nM, the “behavior in FRET assay” value [4] is reported as “ia” and the EC50 [5] is reported as 100 to 1000 nM. The EC50 [6] was under 100 nM.
In the case of `Cc1cc(C)c(S(=O)(=O)N(Cc2ccc(-c3ccc(OCC(=O)O)cc3)cc2)Cc2ccc(C(F)(F)F)o2)c(C)c1` [C7/11], the EC50 [4] is reported as 1000 to 10000 nM, the “behavior in FRET assay” value [4] is reported as “ia” and the EC50 [5] is reported as 100 to 1000 nM. It also gave an EC50 [6] of 100 to 1000 nM.
In the case of `CCOC(=O)c1ccc(CN(Cc2ccc(-c3cccc(S(C)(=O)=O)c3)cc2)S(=O)(=O)c2c(C)cc(C)cc2C)o1` [SR9238, reference compound], the “oral bioavailability (in words)” value [1] is reported as “not orally bioavailable”, the “blood exposure, 4 h” value [1] is reported as “po: below LLOQ” and the “liver exposure, 4 h” value [1] is reported as “po: below LLOQ”.
In the case of `CC(=O)NS(=O)(=O)c1cccc(-c2ccc(CN(Cc3ccc(C(F)(F)F)o3)S(=O)(=O)c3c(C)cc(C)cc3C)cc2)c1` [Example 3/1], the EC50 [4] is reported as over 10000 nM, the “behavior in FRET assay” value [4] is reported as “ia” and the EC50 [5] is reported as 100 to 1000 nM. It also gave an EC50 [6] of under 100 nM.
With `Cc1cc(C)c(S(=O)(=O)N(Cc2ccc(-c3cc(F)cc(C4(C(=O)O)CC4)c3)cc2)Cc2ccc(C(F)(F)F)o2)c(C)c1` [7/7] the EC50 [4] was 100 to 1000 nM, the “behavior in FRET assay” value [4] was “ia” and the EC50 [5] was 100 to 1000 nM. For the same molecule, the EC50 [6] was under 100 nM.
With `COc1cc(-c2ccc3c(c2)C(C)(C)C(=O)OC3)ccc1CN(Cc1ccc(C(F)(F)F)o1)S(=O)(=O)c1c(C)ccc2ccccc12` [Example 22, N-(4-(4,4-Dimethyl-3-oxoisochroman-6-yl)-2-methoxybenzyl)-2-methyl-N-((5-(trifluoro-methyl)furan-2-yl)methyl)naphthalene-1-sulfonamide] the EC50 [4] was 1000 to 10000 nM, the “behavior in FRET assay” value [4] was “ia” and the EC50 [5] was 1000 to 10000 nM. The EC50 [6] was under 100 nM.
With `Cc1cc(C)c(S(=O)(=O)N(Cc2ccc(-c3cccc(S(=O)(=O)CCCC(=O)O)c3)cc2)Cc2ccc(C(F)(F)F)o2)c(C)c1` [7/2] the EC50 [4] was 1000 to 10000 nM, the “behavior in FRET assay” value [4] was “ia” and the EC50 [5] was 100 to 1000 nM. For the same molecule, the EC50 [6] was 100 to 1000 nM.
For `COC(=O)CS(=O)(=O)c1cccc(-c2ccc(CN(Cc3ccc(C(F)(F)F)o3)S(=O)(=O)c3c(C)cc(C)cc3C)cc2)c1` [Example 4, Methyl 2-((4′-(((2,4,6-trimethyl-N-((5-(trifluoromethyl)furan-2-yl)methyl)phenyl)sulfon-amido)methyl)-[1,1′-biphenyl]-3-yl)sulfonyl)acetate], the EC50 [4] was under 100 nM, the “behavior in FRET assay” value [4] was “ia” and the EC50 [5] was 1000 to 10000 nM. For the same molecule, the EC50 [6] was 100 to 1000 nM.
For `Cc1cc(C)c(S(=O)(=O)N(Cc2ccc(N3CCCC(CC(=O)O)C3=O)cc2)Cc2ccc(C(F)(F)F)o2)c(C)c1` (stereo not shown) [Example 16/1], the EC50 [4] was over 10000 nM, the “behavior in FRET assay” value [4] was “ia” and the EC50 [5] was 1000 to 10000 nM. The EC50 [6] was 100 to 1000 nM.
In the case of `Cc1cc(C)c(S(=O)(=O)N(Cc2ccc(-c3cccc(Cc4nn[nH]n4)c3)cc2)Cc2ccc(C(F)(F)F)o2)c(C)c1` [Example C7, N-((3′-((2H-Tetrazol-5-yl)methyl)-[1,1′-biphenyl]-4-yl)methyl)-2,4,6-trimethyl-N-((5-(trifluoro-methyl)furan-2-yl)methyl)benzenesulfonamide], the EC50 [4] is reported as 1000 to 10000 nM, the “behavior in FRET assay” value [4] is reported as “ia” and the EC50 [5] is reported as 100 to 1000 nM. The EC50 [6] was 100 to 1000 nM.
In the case of `Cc1cc(C)c(S(=O)(=O)N(Cc2ccc(-c3cccc(CC(=O)O)c3)cc2)Cc2cccc(C(F)(F)F)c2)c(C)c1` [2/4], the EC50 [4] is reported as 100 to 1000 nM, the “behavior in FRET assay” value [4] is reported as “ia” and the EC50 [5] is reported as 100 to 1000 nM. It also gave an EC50 [6] of under 100 nM.
